What was measured:
Mexican avocados [1] = test: Respiration rate (CO2 release) of Mexican avocados; assay type: in vivo, avocado; details: for cumulative respiration factor (RF): Example 3
From the text: (§1) As used herein, the “respiration rate” of a product such as produce (e.g., a produce unit) refers to the rate at which the product releases CO2, and more specifically is the volume of CO2 (at standard temperature and pressure) released per unit time per unit mass of the product. In some embodiments, the respiration rate of a product can be measured by placing the product in a closed container of known volume that is equipped with a CO2 sensor, recording the CO2 concentration within the container as a function of time, and then calculating the rate of CO2 release required to obtain the measured concentration values. In some cases, the respiration rate of multiple produce units in a volume (e.g., a sealed or semi-sealed volume) is measured in a single measurement (e.g., as an average). It is understood that respiration rate may be determined by indirect methods, including, but not limited to, hyperspectral imaging, NIR, and other imaging or characterization processes.
As used herein, the term “respiration factor” is defined as the ratio of the cumulative respiration of uncoated produce (measured for a control group) to the cumulative respiration of the corresponding coated produce.
(§2) Four groups of 180 (i.e., 3 sets of 60) Mexican avocados were analyzed over four days. One group received no 1-MCP, and the other group was exposed for eight hours to 1-MCP using 2, 4, or 6 packets of 1-MCP (immobilized in cyclodextrin at 0.014%) per set. Each packet was wetted with water, and then placed in a sealed 30 L container along with 1 set of 60 avocados. The avocados were left in the sealed container for 8 hr. After 8 hours, the avocados were removed and the respiration rate was measured over the course of 4 days. Additionally, the firmness of the avocados (represented as durometer stage) was measured using a durometer.
(§3) Three groups of 60 Mexican avocados were analyzed over three days at ambient temperature. One group received no treatment. One group of avocados at stage 1 (i.e., after day 0) was exposed to 1-MCP for approximately 8 hours. One group of avocados at stage 3 (i.e., after day 2) was exposed to 1-MCP for approximately 8 hours. The respiration rate of the avocados was measured over the course of 3 days.
(§4) Three groups of 120 Mexican avocados were analyzed over about 5 days. One group received no treatment. One group was exposed to 1-MCP for 8 hours immediately after removal from cold storage at 4.5° C. (“cold 1-MCP”). One group was exposed to 1-MCP for 8 hours after the avocados spent 2 hours at ambient temperature (“semi-cold 1-MCP”). One group was exposed to 1-MCP for 8 hours after the avocados spent 6 hours at ambient temperature (“ambient 1-MCP”). The respiration rate of the avocados was measured over the course of 5 days. The firmness of the avocados was measured using a durometer.
Four groups of Mexican avocados were analyzed in order to investigate the minimum respiration peak that Mexican avocadoes should reach in order to ripen without quality issues. One group received no treatment. One group was treated with 1 layer of physical treatment (by bowl dipping and ambient drying; physical treatment A at 30 g/L with 3 g/L glycerol monocaprate). […] The respiration rate of the avocados was measured daily for three weeks. […]
To determine the difference in performance for treating avocados on a brush bed at varying concentrations before or after they have been put in ripening rooms, four flats of Mexican avocados were analyzed. […]

Mexican avocados [2] = test: Firmness / durometer stage of Mexican avocados; assay type: in vivo, avocado
Method: In some embodiments, a stage of a produce unit (e.g., an avocado) is based on firmness, and can be measured in shores (e.g., using a durometer) and/or pounds of pressure (e.g., using a penetrometer), then correlated to a stage. In some embodiments, a stage of a produce unit can be based on other parameters, such as respiration rate and/or color).
as §2, §3, §4
(§5) To determine the difference in performance for treating avocados on a brush bed at varying concentrations before or after they have been put in ripening rooms, four flats of Mexican avocados were analyzed. One flat received no treatment. The other three flats were treated with physical treatment A at 12, 22, and 32 g/L, respectively, applied using brush bed system and subsequently dried at 50° C. Avocados treated with physical treatment A were also triggered with ethylene, either before or after treatment with physical treatment A. The respiration rate of the avocados was measured. The firmness of the avocados was measured using a durometer.

Mexican avocados [3] = test: Quality defects of ripened Mexican avocados; assay type: in vivo, avocado
Method: as §2, §3, §5

Cucumbers [4] = test: Mass loss rate of cucumbers; assay type: in vivo, cucumber; details: 20° C., 5 days
Method: (§6) As used herein, the “mass loss rate” refers to the rate at which the product loses mass (e.g. by releasing water and other volatile compounds). The mass loss rate is typically expressed as a percentage of the original mass per unit time (e.g., percent per day).
(§7) Cucumbers were analyzed in the presence (2 ppm) and absence (0 ppm) of exogenous ethylene at 20° C. for 5 days. Four groups of cucumbers were analyzed. One group received no treatment. One group was treated with a chemical treatment (i.e., 1-MCP). One group was treated with a physical treatment A (40 g/L). One group was treated with both a chemical treatment (i.e., 1-MCP) and physical treatment A (40 g/L). The respiration rate and the mass loss rate of the cucumbers was measured

Cucumbers [5] = test: Respiration rate of cucumbers; assay type: in vivo, cucumber; details: 20° C., 5 days
From the text: as §1
as §7, with “One group was treated with both a chemical treatment (i.e., 1-MCP) and physical treatment A (40 g/L).” left out

Cucumbers [6] = test: Aesthetics (yellowing, shrivel) of cucumbers; assay type: in vivo, cucumber; details: 5 days exposure to exogenous ethylene (2 ppm)
Method: as §7

Persian limes [7] = test: Mass loss rate of Persian limes; assay type: in vivo, Persian lime; details: not exposed to ethylene and in the presence of 2 ppm ethylene, 20° C., 5 days
Method: as §6
(§8) Persian limes were analyzed in the presence (2 ppm) and absence (0 ppm) of exogenous ethylene at 20° C. for 5 days. Four groups of limes were analyzed. One group received no treatment. One group was treated with 1-MCP. One group was treated with physical treatment A (40 g/L). One group was treated with both 1-MCP and physical treatment A (40 g/L). The respiration rate of the limes was measured. The mass loss rate of the limes was measured.

Persian limes [8] = test: Aesthetics (yellowing) of Persian limes; assay type: in vivo, Persian lime; details: over a 5 day period; same trends with 2 ppm ethylene
Method: as §8

[9] = Example 3, semi-cold and ambient 1-MCP
[10] = Example 1, once allowed to ripen (about two weeks), 6 packets 1-MCP

CC1=CC1 [1-MCP, 1-methylcyclopropene]
respiration rate (Mexican avocados [1]; Example 1, exposed 8 hr to 2, 4 or 6 packets 1-MCP (in cyclodextrin at 0.014%) in sealed 30 L container, measured over 4 days): high upon removal but quickly decreased and continued to decrease through 4 days post-exposure
CO2 production (Mexican avocados [1]; Example 2, 1-MCP exposure at stage 1): continuous decrease in CO2 production, back to day 0 levels
cumulative respiration factor (RF) (Mexican avocados [1]; cold 1-MCP: exposed 8 hours immediately after removal from 4.5° C. storage): 1.8 ×
cumulative respiration factor (RF) (Mexican avocados [1]; semi-cold (2 hours at ambient) and ambient (6 hours at ambient) 1-MCP exposure, 8 hours): 2.5 ×
RF (respiration factor) (Mexican avocados [1]; Example 7, 1-MCP 8 hours, regardless of subsequent ethylene exposure (24 hours at 200 ppm)): 1.62 ×
durometer stage (Mexican avocados [2]; Example 1, 6 packets of 1-MCP, day 4 (untreated stage 5)): 1.5
softening rate (Mexican avocados [2]; Example 2, 1-MCP applied at stage 3): slight effect
ripening (Mexican avocados [2]; Example 3, cold 1-MCP): ripening behavior was still observed
ripening stage relative to control group (Mexican avocados [2]; Example 3, cold 1-MCP, by the time the control group reached stage 5): over two stages behind the control group
ripening (Mexican avocados [2]; [9]): did not ripen effectively
softening rate reduction (Mexican avocados [2]; [9]): greater softening rate reduction than cold 1-MCP
checkerboarding (high variability of stage of ripeness) (Mexican avocados [3]; Example 1): observed
feel of the avocados (Mexican avocados [3]; Example 1): spongy
incidence of flesh adhesion (Mexican avocados [3]; [10]): > 30%
incidence of mold (Mexican avocados [3]; [10]): > 25%
internal quality (Mexican avocados [3]; Example 2): did not improve internal quality
incidence of mold and vascular browning (Mexican avocados [3]; Example 2, 1-MCP at stage 1 or stage 3, approximately 40 shore): 15-25%
mass loss rate (Cucumbers [4]; absence of ethylene): no impact
mass loss rate (Cucumbers [4]; presence of ethylene (2 ppm)): lowered the mass loss rate
respiration rate (Cucumbers [5]; absence of ethylene): did not lower the overall respiration rate
respiration rate (Cucumbers [5]; exposed to ethylene (2 ppm)): mitigated the corresponding increase in respiration rate
yellowing (Cucumbers [6]): greater positive impact on the rate of yellowing
mass loss rate (Persian limes [7]): no significant impact
yellowing / aesthetics (Persian limes [8]): reduced the yellowing

From patent publication US20220039416A1, “METHODS OF CONTROLLING THE RIPENING OF AGRICULTURAL PRODUCTS” (Apeel Technology, Inc., priority 2020, published 2022)
